Measurements reported in patent US20210214375A1 (LUNDBECK LA JOLLA RESEARCH CENTER, INC., priority 2017, published 2021).
Read-outs that look alike come from different tables or passages of the source.

Tests used:
MAGL [1] = target: T1, MAGL (Homo sapiens, UniProt Q99685); assay: In vitro competitive activity-based protein profiling (gel-based, FP-Rh or HT-01 probe); format: biochemical
T1 construct: Proteomes (human prefrontal cortex or cell membrane fractions); from tissue
T1 sequence (Q99685 1-303): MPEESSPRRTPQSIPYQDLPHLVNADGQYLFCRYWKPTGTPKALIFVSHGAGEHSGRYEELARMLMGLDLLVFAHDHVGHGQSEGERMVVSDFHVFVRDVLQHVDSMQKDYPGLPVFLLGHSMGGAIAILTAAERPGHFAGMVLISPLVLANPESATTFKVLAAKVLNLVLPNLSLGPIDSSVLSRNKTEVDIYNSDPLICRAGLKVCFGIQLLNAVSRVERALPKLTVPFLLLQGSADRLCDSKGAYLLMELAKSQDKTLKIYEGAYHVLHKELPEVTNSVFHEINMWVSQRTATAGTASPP
In short: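 Human prefrontal cortex or cell membrane proteomes (1.0 mg/mL protein) preincubated with varying inhibitor concentrations 30 min at 37° C. FP-Rh or HT-01 probe (1.0 μL of 50 μM stock) then added for 30 min at room temperature; reactions quenched with SDS loading buffer and resolved by SDS-PAGE.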

MAGL [2] = target: T2, MAGL (Mus musculus, UniProt O35678); assay: Mouse brain proteomes from inhibitor treated mice (oral gavage, brain proteomes analyzed 4 h after administration); format: in vivo, mouse (C57Bl/6J); settings: brain proteome 4 h after administration, read-out: % Inh 5 mg/kg MGLL (Mouse)
T2 construct: from tissue; host or cells: brain of wild-type C57Bl/6J mice
T2 sequence (O35678 1-303): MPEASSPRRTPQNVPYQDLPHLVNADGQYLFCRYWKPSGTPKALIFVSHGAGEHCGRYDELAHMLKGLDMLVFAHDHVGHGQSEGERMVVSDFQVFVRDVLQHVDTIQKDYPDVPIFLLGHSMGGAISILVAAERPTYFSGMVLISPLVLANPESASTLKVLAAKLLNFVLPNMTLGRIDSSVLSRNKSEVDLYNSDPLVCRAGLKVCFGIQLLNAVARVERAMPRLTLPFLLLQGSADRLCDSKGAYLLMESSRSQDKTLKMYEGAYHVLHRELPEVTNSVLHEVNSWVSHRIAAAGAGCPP
Description: Compounds are tested to assess their MAGL and serine hydrolase activity using the following in vitro and in vivo assays.
Preparation of Mouse Brain Proteomes from Inhibitor Treated Mice.
Inhibitors were administered to wild-type C57Bl/6J by oral gavage in a vehicle of polyethylene glycol. Each animal was sacrificed 4 h following administration and brain proteomes were prepared and analyzed according to previously established methods (See Niphakis, M. J., et al. (2011) ACS Chem. Neurosci. and Long, J. Z., et al. Nat. Chem. Biol. 5:37-44).

[3] = PC3 proteome, read-out: IC50 MGLL PC3 (Human)
[4] = PFC (prefrontal cortex) proteome, read-out: IC50 MGLL PFC (Human)
[5] = PFC (prefrontal cortex) proteome

| IC50 (MAGL [1]; [3]) [nM] | inhibition at 5 mg/kg (MAGL [2]) [%] | IC50 (MAGL [1]; [4]) [nM] | % Inh MGLL PFC (Human, μM) (MAGL [1]; [5]) | SMILES |
| --- | --- | --- | --- | --- |
| < 100 | ≥ 75 | – | – | CN(Cc1ccc(C(F)(F)F)cc1N1CCC(C(=O)O)CC1)C1(C)CCN(C(=O)OC(C(F)(F)F)C(F)(F)F)CC1 [Example 14, 1-(2-(((1-(((1,1,1,3,3,3-Hexafluoropropan-2-yl)oxy)carbonyl)-4-methylpiperidin-4-yl)(methyl)amino)methyl)-5-(trifluoromethyl)phenyl)piperidine-4-carboxylic acid] |
| < 100 | ≤ 25 | – | – | CC1(C(=O)O)CCCN(c2cc(C(F)(F)F)ccc2CN2CC3(CCN(C(=O)OC(C(F)(F)F)C(F)(F)F)CC3)C2)C1 (stereo not drawn) [Example 112, 1-(2-((7-(((1,1,1,3,3,3-Hexafluoropropan-2-yl)oxy)carbonyl)-2,7-diazaspiro[3.5]nonan-2-yl)methyl)-5-(trifluoromethyl)phenyl)-3-methylpiperidine-3-carboxylic acid] |
| < 100 | 25 to 75 | < 100 | – | CC1(C(=O)O)CCCN(c2cc(CN3CC4(CCN(C(=O)OC(C(F)(F)F)C(F)(F)F)CC4)C3)cc(C(F)(F)F)c2)C1 (stereo not drawn) [Example 114, 1-(3-((7-(((1,1,1,3,3,3-Hexafluoropropan-2-yl)oxy)carbonyl)-2,7-diazaspiro[3.5]nonan-2-yl)methyl)-5-(trifluoromethyl)phenyl)-3-methylpiperidine-3-carboxylic acid] |
| < 100 | ≥ 75 | – | – | CN(Cc1ccc(C(F)(F)F)cc1N1CCC(C(=O)O)C1)C1(C)CCN(C(=O)OC(C(F)(F)F)C(F)(F)F)CC1 (stereo not drawn) [Example 118, 1-(2-(((1-(((1,1,1,3,3,3-Hexafluoropropan-2-yl)oxy)carbonyl)-4-methylpiperidin-4-yl)(methyl)amino)methyl)-5-(trifluoromethyl)phenyl)pyrrolidine-3-carboxylic acid] |
| < 100 | ≥ 75 | – | – | CC1(N(CC(=O)O)Cc2ccc(C(F)(F)F)cc2N2CCOCC2)CCN(C(=O)OC(C(F)(F)F)C(F)(F)F)CC1 [Example 124, N-(1-(((1,1,1,3,3,3-Hexafluoropropan-2-yl)oxy)carbonyl)-4-methylpiperidin-4-yl)-N-(2-morpholino-4-(trifluoromethyl)benzyl)glycine] |
| < 100 | ≤ 25 | – | – | O=C(O)CN1CC2CC1CN2c1cc(CN2CCC3(CCN(C(=O)OC(C(F)(F)F)C(F)(F)F)CC3)C2)cc(C(F)(F)F)c1 (stereo not drawn) [Example 125, 2-(5-{3-[(8-{[(1,1,1,3,3,3-Hexafluoropropan-2-yl)oxy]carbonyl}-2,8-diazaspiro[4.5]decan-2-yl)methyl]-5-(trifluoromethyl)phenyl}-2,5-diazabicyclo[2.2.1]heptan-2-yl)acetic acid] |
| < 100 | ≤ 25 | – | – | O=C(O)CN1CC2CC1CN2c1cc(C(F)(F)F)ccc1CN1CCCC12CCN(C(=O)OC(C(F)(F)F)C(F)(F)F)CC2 (stereo not drawn) [Example 126, 2-(5-{2-[(8-{[(1,1,1,3,3,3-Hexafluoropropan-2-yl)oxy]carbonyl}-1,8-diazaspiro[4.5]decan-1-yl)methyl]-5-(trifluoromethyl)phenyl}-2,5-diazabicyclo[2.2.1]heptan-2-yl)acetic acid] |
| < 100 | ≤ 25 | – | – | O=C(O)CN1CC2CC1CN2c1cc(C(F)(F)F)ccc1CN1CC2(CCN(C(=O)OC(C(F)(F)F)C(F)(F)F)CC2)C1 (stereo not drawn) [Example 127, 2-(5-{2-[(7-{[(1,1,1,3,3,3-Hexafluoropropan-2-yl)oxy]carbonyl}-2,7-diazaspiro[3.5]nonan-2-yl)methyl]-5-(trifluoromethyl)phenyl}-2,5-diazabicyclo[2.2.1]heptan-2-yl)acetic acid] |
| < 100 | ≤ 25 | – | – | O=C(O)CN1CC2CC1CN2c1cc(CN2CCCC23CCN(C(=O)OC(C(F)(F)F)C(F)(F)F)CC3)cc(C(F)(F)F)c1 (stereo not drawn) [Example 128, 2-(5-{3-[(8-{[(1,1,1,3,3,3-Hexafluoropropan-2-yl)oxy]carbonyl}-1,8-diazaspiro[4.5]decan-1-yl)methyl]-5-(trifluoromethyl)phenyl}-2,5-diazabicyclo[2.2.1]heptan-2-yl)acetic acid] |
| < 100 | ≤ 25 | – | – | CC1(C(=O)O)CN(c2cc(C(F)(F)F)ccc2CN2CC3(CCN(C(=O)OC(C(F)(F)F)C(F)(F)F)CC3)C2)CCO1 (stereo not drawn) [Example 130, 4-(2-((7-(((1,1,1,3,3,3-Hexafluoropropan-2-yl)oxy)carbonyl)-2,7-diazaspiro[3.5]nonan-2-yl)methyl)-5-(trifluoromethyl)phenyl)-2-methylmoipholine-2-carboxylic acid] |
| < 100 | ≥ 75 | – | ### (### is ≥ 75%) | CN(Cc1ccc(C(F)(F)F)cc1C1(C(=O)O)CCCC1)C1(C)CCN(C(=O)OC(C(F)(F)F)C(F)(F)F)CC1 [Example 133, 1-(2-{[(1-{[(1,1,1,3,3,3-Hexafluoropropan-2-yl)oxy]carbonyl}-4-methylpiperidin-4-yl)(methyl)amino]methyl}-5-(trifluoromethyl)phenyl)cyclopentane-1-carboxylic acid] |
| < 100 | ≥ 75 | – | ### (### is ≥ 75%) | O=C(OC(C(F)(F)F)C(F)(F)F)N1CCC2(CCCN2Cc2cc(Cl)cc(C3(C(=O)O)CCCC3)c2)CC1 [Example 134, 1-{3-Chloro-5-[(8-{[(1,1,1,3,3,3-hexafluoropropan-2-yl)oxy]carbonyl}-1,8-diazaspiro[4.5]decan-1-yl)methyl]phenyl} cyclopentane-1-carboxylic acid] |
| < 100 | ≥ 75 | – | ### (### is ≥ 75%) | CN(Cc1ccc(C(F)(F)F)cc1CN1CCC(C(=O)O)CC1)C1(C)CCN(C(=O)OC(C(F)(F)F)C(F)(F)F)CC1 [Example 137, 1-(2-(((1-(((1,1,1,3,3,3-Hexafluoropropan-2-yl)oxy)carbonyl)-4-methylpiperidin-4-yl)(methyl)amino)methyl)-5-(trifluoromethyl)benzyl)piperidine-4-carboxylic acid] |
| < 100 | ≤ 25 | < 100 | – | CN(Cc1cc(N2CCOC(C)(C(=O)O)C2)cc(C(F)(F)F)c1)C1(C)CCN(C(=O)OC(C(F)(F)F)C(F)(F)F)CC1 (stereo not drawn) [Example 139] |
| < 100 | ≥ 75 | – | ### (### is ≥ 75%) | CN(Cc1ccccc1C1(C(=O)O)CCCC1)C1(C)CCN(C(=O)OC(C(F)(F)F)C(F)(F)F)CC1 [Example 141] |
| < 100 | ≥ 75 | – | ### (### is ≥ 75%) | CN(Cc1ccc(Cl)cc1C1(C(=O)O)CCCC1)C1(C)CCN(C(=O)OC(C(F)(F)F)C(F)(F)F)CC1 [Example 142, 1-(5-Chloro-2-{[(1-{[(1,1,1,3,3,3-hexafluoropropan-2-yl)oxy]carbonyl}-4-methylpiperidin-4-yl)(methyl)amino]methyl}phenyl) cyclopentane-1-carboxylic acid] |
| < 100 | ≥ 75 | – | ### (### is ≥ 75%) | CN(Cc1ccc(F)cc1C1(C(=O)O)CCCC1)C1(C)CCN(C(=O)OC(C(F)(F)F)C(F)(F)F)CC1 [Example 143, 1-(5-Fluoro-2-{[(1-{[(1,1,1,3,3,3-hexafluoropropan-2-yl)oxy]carbonyl}-4-methylpiperidin-4-yl)(methyl)amino]methyl}phenyl) cyclopentane-1-carboxylic acid] |
